How the values were obtained:
EGFR = target: T1, EGFR (Homo sapiens, UniProt P00533); experiment: EGFR Kinase Assay; type: biochemical; conditions: for inhibition at 2 µM: test concentration of 2 μM, read-out: EGFR percent inhibition
T1 construct: The intracellular portion of EGFR started at nucleotide 2189 (corresponding to amino acid 667) and ended at the termination codon; made in house; host or cells: Sf9 insect cells (baculovirus)
Text: The EGFR kinase used was a fusion of Glutathione-S-Transferase (GST) and a PCR amplified intracellular portion of EGFR (NM_005228). The intracellular portion of EGFR started at nucleotide 2189 (corresponding to amino acid 667) and ended at the termination codon. The portion was PCR amplified with primers that added the lambda attB sequences to each end, recombined into an entry vector, then into a GST destination vector (as described in Gateway Technologies Manual by Invitrogen Corporation, Carlsbad, Calif.).
The destination vector was recombined in the DH10BAC strain of bacteria to produce a bacmid. The bacmid was transfected into Sf 9 cells and the supernatant containing the baculovirus was collected. The GSTEGFR protein was purified using large cultures of Sf 9 cells infected with stock virus. After an appropriate period of time, the cells were collected and lysed. The GSTEGFR was then purified from the lysate on Glutathione-Sepharose columns (as described by Amersham Biosciences, Buckinghamshire, United Kingdom).
The EGFR substrate was prepared by biotinylating polyGluTyr (128 mg) (Sigma, St. Louis, Mo.) in a 1×PBS buffer incubated together with a 12-fold molar excess of Sulfo-NHS-LC-Biotin on ice for at least 2 hrs. The free biotin was separated from the biotinylated polyGluTyr on a gel filtration column.
A mixture of a 10× kinase buffer (500 mM Tris at pH 8.0, 100 mM Magnesium Chloride and 1 mM Sodium Vanadate), DTT (1 mM final from 500 mM stock), ATP (5 μM final from 10 mM stock), biotinylated polyGluTyr (10 μg/μL stock), γ-^33P ATP (10 μCi/μL stock) and water was added to each well (90 μL/well) of a Streptavidin Flashplate (Perkin Elmer, Wellesley, Mass.).
Test compound in 100% DMSO (2 μL) was added to the appropriate wells. Diluted GSTEGFR (1:300 dilution in 50 mM Tris at pH 8.0 and 0.1% bovine serum albumin) (10 μL) was added to the wells to initiate the reactions.
The plates were incubated at 30° C. for 1 hr with shaking. The reacted contents were removed and the plates were sequentially washed three times with a 1×PBS stop buffer (300 μL without Magnesium and Calcium) and 100 mM EDTA. After the final wash, the same stop buffer (200 μL) was added to the wells. The plates were then sealed and read on the TopCount scintillation counter.
Test compounds were assayed in triplicate at 16 concentrations at half-log dilutions starting at 200 uM. A maximum and minimum signal for the assay was determined on each plate. The percent inhibition of a test compound was calculated according to the formula
For a series of test concentrations, the IC50 was derived by graphing percent inhibition against the log of the concentrations tested for a given compound. For those compounds without an IC50, the percent inhibition results are shown at a test concentration of 2 μM.

VEGF-R2 = target: T2, VEGF-R2 (Rattus norvegicus, UniProt O08775); experiment: VEGF-R2 Screening Assay; type: biochemical; conditions: test concentration of 1 μM; read-out: VEGF-R2 percent inhibition
T2 construct: polyhistidine (N)
T2 sequence (O08775 786-1343): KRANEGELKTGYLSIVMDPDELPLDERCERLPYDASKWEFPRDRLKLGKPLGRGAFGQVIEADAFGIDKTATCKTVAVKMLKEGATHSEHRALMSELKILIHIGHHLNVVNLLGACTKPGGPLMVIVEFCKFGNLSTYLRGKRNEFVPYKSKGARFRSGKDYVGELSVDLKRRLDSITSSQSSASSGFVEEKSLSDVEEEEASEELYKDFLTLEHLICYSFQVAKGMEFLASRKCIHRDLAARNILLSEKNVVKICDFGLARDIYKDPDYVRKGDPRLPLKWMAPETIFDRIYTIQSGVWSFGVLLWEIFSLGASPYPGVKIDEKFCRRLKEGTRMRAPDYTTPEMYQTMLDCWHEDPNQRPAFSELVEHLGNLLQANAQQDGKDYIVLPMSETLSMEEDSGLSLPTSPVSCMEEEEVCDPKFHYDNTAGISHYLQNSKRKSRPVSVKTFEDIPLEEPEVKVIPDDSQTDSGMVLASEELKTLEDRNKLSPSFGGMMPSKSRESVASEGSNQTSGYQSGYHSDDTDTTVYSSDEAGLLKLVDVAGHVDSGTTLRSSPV
Method: (§1) A kinase reaction mixture was prepared containing 50 mM Tris-HCl at pH 8, 10 mM, MgCl20.1 mM […], 1 mM DTT, 10 μM ATP, 0.025 μM biotinylated histone-H1 peptide substrate and 0.2 μCuries per well ^33P-γ-ATP (2000-3000 Ci/mmol). 70 μL of the kinase reaction mixture was dispensed into the well of a Streptavidin FlashPlate.
(§2) Test compound stock in 100% DMSO (1 μL) was added to the wells resulting in a final concentration of 1% DMSO in the reaction with a 100 μL final reaction volume. Each enzyme was diluted in 50 mM Tris-HCl pH=8.0, 0.1% BSA and 30 μL was added to each well to initiate the reaction. The reaction was incubated for one hour at 30° C. At the end of the 1 hr incubation, the reaction was terminated by aspirating the mixture from the plate and washing the wells twice with PBS containing 100 mM EDTA. The biotinylated peptide substrate became immobilized on the Flashplate^198 and the incorporation of ^33P-γ-ATP was measured by reading the plate on a scintillation counter. Inhibition of the enzymatic activity was measured by observing a reduced amount of ^33P-γ-ATP incorporated into the immobilized peptide.
The VEGF-R2 enzyme is a fusion protein containing a polyhistidine tag at the N terminus followed by amino acids 786 to 1343 of the rat VEGF-R2 kinase domain (Accession number U93306). The assay used 150 ng of the N-terminal biotinylated peptide biotin-KHKKLAEGSAYEEV-amide (VEGF-R2) per well.
(§3) The IC50 was derived according to the procedure described in Example 2. For those compounds without an IC50, the percent inhibition results are shown at a test concentration of 1 μM.

Aurora-A = target: T3, Aurora-A (Mus musculus, UniProt P97477); experiment: Aurora-A Screening Assay; type: biochemical, murine; conditions: test concentration of 1 μM; read-out: Aurora-A percent inhibition
T3 construct: followed by the full length protein encoding the murine Aurora-A; polyhistidine (N); made in house; host or cells: sf9 insect cells
T3 sequence (P97477 1-395): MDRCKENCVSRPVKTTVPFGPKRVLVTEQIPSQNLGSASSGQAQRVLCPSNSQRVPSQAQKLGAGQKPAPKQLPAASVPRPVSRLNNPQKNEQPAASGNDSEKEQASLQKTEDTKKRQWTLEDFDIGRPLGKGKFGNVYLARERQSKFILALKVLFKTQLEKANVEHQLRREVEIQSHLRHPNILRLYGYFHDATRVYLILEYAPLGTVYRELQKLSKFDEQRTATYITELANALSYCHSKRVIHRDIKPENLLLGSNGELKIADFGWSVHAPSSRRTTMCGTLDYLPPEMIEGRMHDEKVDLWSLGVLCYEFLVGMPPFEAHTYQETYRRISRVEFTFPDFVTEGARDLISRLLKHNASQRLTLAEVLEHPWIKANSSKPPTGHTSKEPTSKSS
Method: as §1, §2
Aurora-A is a fusion protein containing a polyhistidine tag at the N terminus followed by the full length protein encoding the murine Aurora-A (Accession number GB BC014711) expressed and purified from sf9 insect cells. The assay used 400 ng of the N-terminal biotinylated peptide biotin-GRTGRRNSI-amide (Aurora-A) per well.
as §3

HER-2 = target: T4, HER-2 (Homo sapiens, UniProt P04626); experiment: HER-2 Kinase Assay; type: biochemical; conditions: for inhibition at 1 µM: test concentration of 1 μM, read-out: HER-2 percent inhibition
T4 construct: the nucleotides encoding amino acids 679 to 1255 of HER-2; purchased Proqinase (Freiburg, Germany)
T4 sequence (P04626 679-1255): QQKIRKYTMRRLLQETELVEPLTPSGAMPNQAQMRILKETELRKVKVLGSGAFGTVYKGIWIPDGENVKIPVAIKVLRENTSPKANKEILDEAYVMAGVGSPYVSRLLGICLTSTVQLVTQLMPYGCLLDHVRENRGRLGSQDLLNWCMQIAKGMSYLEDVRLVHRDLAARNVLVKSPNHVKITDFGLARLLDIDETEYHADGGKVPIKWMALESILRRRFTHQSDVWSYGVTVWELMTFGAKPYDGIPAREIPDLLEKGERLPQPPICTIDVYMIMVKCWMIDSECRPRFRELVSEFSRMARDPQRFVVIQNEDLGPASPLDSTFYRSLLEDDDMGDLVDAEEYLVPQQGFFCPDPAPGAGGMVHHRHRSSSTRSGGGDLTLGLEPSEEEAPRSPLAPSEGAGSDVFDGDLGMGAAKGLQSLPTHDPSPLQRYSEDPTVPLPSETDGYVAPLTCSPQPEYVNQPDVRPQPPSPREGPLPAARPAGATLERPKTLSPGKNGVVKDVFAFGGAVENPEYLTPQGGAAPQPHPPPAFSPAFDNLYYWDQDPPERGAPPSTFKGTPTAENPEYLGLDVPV
Method: HER-2 kinase was purified at Proqinase (Freiburg, Germany) from a construct that consisted of a fusion of GST (Glutathione-S-Transferase), HIS6-Thrombin and the nucleotides encoding amino acids 679 to 1255 of HER-2.
A mixture of a 10× kinase reaction buffer (600 mM Hepes at pH 7.5, 30 mM Magnesium Chloride, 0.03 mM Sodium Vanadate and 500 μg/mL PEG 20,000), DTT (1.2 mM final from a 10 mM stock), ATP (1 μM from a 10 mM stock), biotinylated polyGluTyr (1.5 ng/μL final from stock of 1 μg/μL prepared by Upstate Biotechnologies, Lake Placid, N.Y.), Manganese Chloride (3 mM final from a 1 M stock), γ-^33P-ATP (10 μCi/μL stock) and water (70 μL/well) was added to each well of a Streptavidin Flashplate (Cat. #SMP103, NEN, Boston, Mass.).
Test compound stock (1 μL) was added to the appropriate wells. Diluted GSTHER2 kinase (6.7 ng/μL diluted into 50 mM Tris-HCl at pH 8.0 and 0.1% bovine serum albumin) (30 μL) was added (total volume of 200 ng/well) to initiate the reactions.
The reaction plates were incubated at 30° C. for 1 hr. The reaction was terminated by aspiring the reaction mixture from the plate wells and washing the wells three times with a 1×PBS stop buffer (300 μL) and 100 mM EDTA. After the final wash, the same stop buffer (200 μL) was again added to the wells. The plates were then sealed and read on the TopCount scintillation counter.
as §3

T1 sequence (P00533 669-1210 limits assumed): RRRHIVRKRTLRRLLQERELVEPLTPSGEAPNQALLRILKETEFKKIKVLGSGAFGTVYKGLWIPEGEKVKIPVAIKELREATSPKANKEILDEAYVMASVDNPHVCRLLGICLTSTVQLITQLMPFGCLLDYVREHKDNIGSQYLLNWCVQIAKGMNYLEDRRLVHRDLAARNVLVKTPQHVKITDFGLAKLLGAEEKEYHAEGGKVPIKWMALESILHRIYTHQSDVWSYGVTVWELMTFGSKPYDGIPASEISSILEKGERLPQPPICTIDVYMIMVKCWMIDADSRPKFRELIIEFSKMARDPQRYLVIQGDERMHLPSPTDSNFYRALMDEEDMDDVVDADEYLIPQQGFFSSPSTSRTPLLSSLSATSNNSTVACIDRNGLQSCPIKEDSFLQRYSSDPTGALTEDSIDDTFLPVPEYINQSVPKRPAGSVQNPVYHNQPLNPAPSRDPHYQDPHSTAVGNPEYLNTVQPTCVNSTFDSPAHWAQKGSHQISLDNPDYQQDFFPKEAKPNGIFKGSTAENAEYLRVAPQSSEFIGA

## CN(C)c1cc(NC(=O)c2sc3ncc(C#N)c4c3c2NC(=O)N4c2c(Cl)ccc3c2OCO3)ccc1CN1CCOCC1 [Cpd 27, 5-(5-chloro-benzo[1,3]dioxol-4-yl)-6-cyano-4-oxo-4,5-dihydro-3H-1-thia-3,5,8-triaza-acenaphthylene-2-carboxylic acid (3-dimethylamino-4-morpholin-4-ylmethyl-phenyl)-amide]
EGFR
  inhibition at 2 µM: 34%
VEGF-R2
  inhibition at 1 µM: 7%
Aurora-A
  inhibition at 1 µM: 16%
HER-2
  inhibition at 1 µM: 0%

## N#Cc1cnc2sc(C(=O)N3CCC(O)CC3)c3c2c1N(c1c(Cl)ccc2c1OCO2)C(=O)N3 [Cpd 28, 5-(5-chloro-benzo[1,3]dioxol-4-yl)-2-(4-hydroxy-piperidine-1-carbonyl)-4-oxo-4,5-dihydro-3H-1-thia-3,5,8-triaza-acenaphthylene-6-carbonitrile]
EGFR
  inhibition at 2 µM: 9%
VEGF-R2
  inhibition at 1 µM: 15%
Aurora-A
  inhibition at 1 µM: 25%
HER-2
  inhibition at 1 µM: 35%

## CN(C(=O)c1sc2ncc(C#N)c3c2c1NC(=O)N3c1c(Cl)ccc2c1OCO2)c1ccc(CN2CCOCC2)cc1 [Cpd 29, 5-(5-chloro-benzo[1,3]dioxol-4-yl)-6-cyano-4-oxo-4,5-dihydro-3H-1-thia-3,5,8-triaza-acenaphthylene-2-carboxylic acid methyl-(4-morpholin-4-ylmethyl-phenyl)-amide]
EGFR
  inhibition at 2 µM: 2%
VEGF-R2
  inhibition at 1 µM: 10%
Aurora-A
  inhibition at 1 µM: 13%
HER-2
  inhibition at 1 µM: 0%

## N#Cc1cnc2sc(C(=O)Nc3ccc(NCCCN4CCOCC4)nc3)c3c2c1N(c1c(Cl)ccc2c1OCO2)C(=O)N3 [Cpd 30, 5-(5-chloro-benzo[1,3]dioxol-4-yl)-6-cyano-4-oxo-4,5-dihydro-3H-1-thia-3,5,8-triaza-acenaphthylene-2-carboxylic acid [6-(3-morpholin-4-yl-propylamino)-pyridin-3-yl]-amide]
EGFR
  inhibition at 2 µM: 11%
VEGF-R2
  inhibition at 1 µM: 12%
Aurora-A
  inhibition at 1 µM: 22%
HER-2
  inhibition at 1 µM: 35%

## COc1cc(NC(=O)c2sc3ncc(C#N)c4c3c2NC(=O)N4c2c(Cl)ccc3c2OCO3)ccc1OCCN1CCCCC1 [Cpd 31, 5-(5-chloro-benzo[1,3]dioxol-4-yl)-6-cyano-4-oxo-4,5-dihydro-3H-1-thia-3,5,8-triaza-acenaphthylene-2-carboxylic acid [3-methoxy-4-(2-piperidin-1-yl-ethoxy)-phenyl]-amide]
EGFR
  IC50: 513 nM
VEGF-R2
  inhibition at 1 µM: 17%
Aurora-A
  inhibition at 1 µM: 22%
HER-2
  inhibition at 1 µM: 35%

## CN1CCCCC1COc1ccc(NC(=O)c2sc3ncc(C#N)c4c3c2NC(=O)N4c2c(Cl)ccc3c2OCO3)cc1 (stereo not shown) [Cpd 32, 5-(5-chloro-benzo[1,3]dioxol-4-yl)-6-cyano-4-oxo-4,5-dihydro-3H-1-thia-3,5,8-triaza-acenaphthylene-2-carboxylic acid [4-(1-methyl-piperidin-2-ylmethoxy)-phenyl]-amide]
EGFR
  inhibition at 2 µM: 35%
VEGF-R2
  inhibition at 1 µM: 1%
Aurora-A
  inhibition at 1 µM: 13%
HER-2
  inhibition at 1 µM: 22%

## N#Cc1cnc2sc(C(=O)Nc3cc[nH]n3)c3c2c1N(c1c(Cl)ccc2c1OCO2)C(=O)N3 [Cpd 33, 5-(5-chloro-benzo[1,3]dioxol-4-yl)-6-cyano-4-oxo-4,5-dihydro-3H-1-thia-3,5,8-triaza-acenaphthylene-2-carboxylic acid (1H-pyrazol-3-yl)-amide]
EGFR
  IC50: 1220 nM
VEGF-R2
  inhibition at 1 µM: 18%
Aurora-A
  inhibition at 1 µM: 29%
HER-2
  inhibition at 1 µM: 37%

## Cc1cc(NC(=O)c2sc3ncc(C#N)c4c3c2NC(=O)N4c2c(Cl)ccc3c2OCO3)no1 [Cpd 34, 5-(5-chloro-benzo[1,3]dioxol-4-yl)-6-cyano-4-oxo-4,5-dihydro-3H-1-thia-3,5,8-triaza-acenaphthylene-2-carboxylic acid (5-methyl-isoxazol-3-yl)-amide]
EGFR
  inhibition at 2 µM: 30%
VEGF-R2
  inhibition at 1 µM: 16%
Aurora-A
  inhibition at 1 µM: 29%
HER-2
  IC50: > 1000 nM

## N#Cc1cnc2sc(C(=O)Nc3ncccn3)c3c2c1N(c1c(Cl)ccc2c1OCO2)C(=O)N3 [Cpd 35, 5-(5-chloro-benzo[1,3]dioxol-4-yl)-6-cyano-4-oxo-4,5-dihydro-3H-1-thia-3,5,8-triaza-acenaphthylene-2-carboxylic acid pyrimidin-2-ylamide]
EGFR
  inhibition at 2 µM: 42%
VEGF-R2
  inhibition at 1 µM: 22%
Aurora-A
  inhibition at 1 µM: 16%
HER-2
  IC50: > 1000 nM

## N#Cc1cnc2sc(C(=O)Nc3cccnc3)c3c2c1N(c1c(Cl)ccc2c1OCO2)C(=O)N3 [Cpd 36, 5-(5-chloro-benzo[1,3]dioxol-4-yl)-6-cyano-4-oxo-4,5-dihydro-3H-1-thia-3,5,8-triaza-acenaphthylene-2-carboxylic acid pyridin-3-ylamide]
EGFR
  inhibition at 2 µM: 35%
VEGF-R2
  inhibition at 1 µM: 15%
Aurora-A
  inhibition at 1 µM: 21%
HER-2
  inhibition at 1 µM: 29%
